Counter-ions that a name gives are not always drawn.
Test: Excipient compatibility study
Assay type: physicochemical

C[C@@H](C(=O)Nc1ccc(Cl)cc1)[C@H]1CC[C@@H](c2ccnc3ccc(F)cc32)CC1 [Compound I-MSA, (R)—N-(4-chlorophenyl)-2-((1S, 4S)-4-(6-fluoroquinolin-4-yl)cyclohexyl) propanamide methane sulfonic acid salt]
chemical stability with commonly used pharmaceutical excipients: acceptable chemical stability

Reference: patent US20240122857A1, “PHARMACEUTICAL FORMULATIONS OF INDOLEAMINE 2, 3-DIOXYGENASE INHIBITORS” (BRISTOL-MYERS SQUIBB COMPANY, priority 2019, published 2024)
